Data as given in PMC2690590, “Functional recombinant MHC class II molecules and high-throughput peptide-binding assays” (Immunome Research, 2009).
pEC50, pIC50, pKd: −log10 of the molar value. Read-outs that look alike come from different tables or passages of the source. Where no end group is shown, it is not given here.

Legend:
I-E^d = target: T1, I-E^d (Mus musculus, UniProt P01904+P01915); experiment: Direct LOCI peptide-MHC-II binding assay, I-E^d
T1 construct: I-E^dA1-191LZFos; I-E^dB1-198LZJunBSP; made in house

DR1 [1] = target: T2, DR1 (Homo sapiens, UniProt P01903+P01911, A100R/D57E/F55L/F60I/F76Y/I96L/L162R/M171V/P40L/Q125E/R42F/V115G/Y59C); experiment: biochemical; type: binding
DR1 (DRA*0101/DRB1*0101) = DR1 (DRA*0101/DRB1*0101) (Homo sapiens, UniProt P01903+P01911, A100R/D57E/F55L/F60I/F76Y/I96L/L162R/M171V/P40L/Q125E/R42F/V115G/Y59C); experiment: Competitive peptide-HLA-DR1 binding assay, radioactive spun column
[2] = target: DP401 (DPA1*0103/DPB1*0401) (Homo sapiens, UniProt P04440+P20036); experiment: Direct LOCI peptide-MHC-II binding assay, DP401
[3] = target: T3, DRB1*0813 (DRA*0101/DRB1*0813) (Homo sapiens, UniProt P01903+P01911, A100R/A103L/A169T/F76Y/H45Y/I96L/K41T/L162R/M171V/P40S/Q125H/Q178H/Q39Y/Q99D/R218S/R42G/S66Y/V115G/W38E); experiment: Direct LOCI peptide-MHC-II binding assay, DRB1*0813
T3 construct: DRA*01011-181LZFos; DRB1*08131-190LZJunBSP; made in house

[4] = target: T4, DRB3*0301 (DRA*0101/DRB3*0301) (Homo sapiens, UniProt P01903+P79483, A169T/A212P/D57E/G115V/L67V/Q178H/R103Q/R40L/Y55F); experiment: Direct LOCI peptide-MHC-II binding assay, DRB3*0301
T4 construct: DRA*01011-181LZFos; DRB3*03011-190LZJunBSP; made in house

DR3 (DRA*0101/DRB1*0301) = target: T5, DR3 (DRA*0101/DRB1*0301) (Homo sapiens, UniProt P01903+P01911, A100K/A102G/A103R/A169T/F55Y/I96L/K41T/L162R/M171V/P40S/Q125H/Q178H/Q39Y/R42S/S66N/T106N/T262R/W38E/Y61H); experiment: Direct LOCI peptide-MHC-II binding assay, DR3
T5 construct: DRA*01011-181LZFos; DRB1*03011-190LZJunBSP; made in house

DR2 (DR2a) = target: T6, DR2 (DR2a) (Homo sapiens, UniProt P01903+Q30154); experiment: ELISA-based peptide-MHC class II binding assay, DR2
T6 construct: DR2a: DRA*0101_1–181/DRB5*0101_1–190; made in house

[5] = target: T7, DR2a (DRA*0101/DRB5*0101) (Homo sapiens, UniProt P01903+Q30154); experiment: Direct LOCI peptide-MHC-II binding assay, DR2a
T7 construct: DRA*01011-181LZFos; DRB5*01011-190LZJunBSP; made in house

[6] = target: T7, DR2a (DRA*0101/DRB5*0101); experiment: Competitive LOCI peptide-MHC-II binding assay, DR2a
DR4 = target: T8, DR4 (Homo sapiens, UniProt P01903+P01911); experiment: ELISA-based peptide-MHC class II binding assay, DR4
T8 construct: made in house

DR4 (DRA*0101/DRB1*0401) = target: T9, DR4 (DRA*0101/DRB1*0401) (Homo sapiens, UniProt P01903+P01911, A100K/A169T/F76Y/I96L/K127E/L162R/M171V/N62H/P40V/Q125Y/R42H/S133A/S149N/S66Y/V115G/V209L/W38E); experiment: Direct LOCI peptide-MHC-II binding assay, DR4
T9 construct: DRA*01011-181LZFos; DRB1*04011-190LZJunBSP; made in house

DR1 [7] = target: T2, DR1; experiment: Effects of additives on the refolding of DR1, spun column assay; type: biochemical; settings: for Harmfull (to DR1 refolding): additive titrated in refolding buffer pH 8 without glycerol, 3 nM 125I YHA306-318, 80 nM DR1 α and β chains
[8] = refolding buffer pH 8 without glycerol, 3 nM 125I YHA306-318, 80 nM DR1

YKYVKQNTLKLAT [HA306-318]
pKd (I-E^d; 48 h 18°C, read-out: I-E^D affinity): 7.60
pEC50 (DR1 [1]): 8.66
pIC50 (DR1 (DRA*0101/DRB1*0101)): 7.47
pKd ([2]; pH 7, 48 h 18°C, read-out: DP401 affinity): < 5.30
pKd ([3]; pH 6-7.5, 48 h 18°C, read-out: DRB1*0813 affinity): 7.96
pKd ([4]; pH 7, 48 h 18°C, read-out: DRB3*0301 affinity): 8.40
pKd (DR3 (DRA*0101/DRB1*0301); pH 6-7, 48 h 18°C, read-out: DR3 affinity): 7.89
pEC50 (DR2 (DR2a)): 8.92
pKd ([5]; pH 6, 48 h 18°C, read-out: DR2a pH6 affinity): 8.00
pIC50 ([6]; pH 6-7.5, 48 h 18°C, read-out: DR2a Komp IC50): 8.70
pEC50 (DR4): 7.37
pKd (DR4 (DRA*0101/DRB1*0401); pH 6-7.5, 48 h 18°C, read-out: DR4 affinity): 8.10

OCC(O)CO [Glycerol]
Harmfull (to DR1 refolding) (DR1 [7]): No
effect on DR1 refolding (in words) (DR1 [7]; refolding buffer pH 8, 3 nM 125I YHA306-318, 80 nM DR1): Enhances folding in whole range tested

C[C@H](CCC(=O)O)[C@H]1CC[C@H]2[C@@H]3CC[C@@H]4C[C@H](O)CC[C@]4(C)[C@H]3C[C@H](O)[C@]12C [DOC, Deoxycholate]
Harmfull (to DR1 refolding) (DR1 [7]): Yes/No
Positive effect up to (harmful at higher concentrations) (DR1 [7]; [8]): Positive effect up to 0.02 % Harmfull at higher concentrations

CCC(C)O (centres unmarked) [2-Butanol]
Harmfull (to DR1 refolding) (DR1 [7]): Yes
additive concentration at 50 % signal reduction (DR1 [7]; [8]): 2.5 Vol %

NC(N)=O [Urea]
Harmfull (to DR1 refolding) (DR1 [7]): Yes/No
Ok up to (harmful at higher concentrations) (DR1 [7]; [8]): Ok up to 400 mM. Harmfull at higher concentrations

Oc1ccc(Cl)cc1 [parachlorophenol (pCP), parachlorophenol]
Harmfull (to DR1 refolding) (DR1 [7]): Yes
additive concentration at 50 % signal reduction (DR1 [7]; [8]): 4 mM

CCCCCCCCO[C@@H]1O[C@H](CO)[C@@H](O)[C@H](O)[C@H]1O [Beta octyl glucoside]
Harmfull (to DR1 refolding) (DR1 [7]): No
Ok up to (DR1 [7]; [8]): Ok up to 0.5 w/w %

CC(C)O [Isopropanol]
Harmfull (to DR1 refolding) (DR1 [7]): Yes
additive concentration at 50 % signal reduction (DR1 [7]; [8]): 5 Vol %

[Cl-].[Na+] [NaCl, Sodium Chloride]
Harmfull (to DR1 refolding) (DR1 [7]): Yes
additive concentration at 50 % signal reduction (DR1 [7]; [8]): 100 mM

CSCC[C@H](NC(=O)[C@@H]1CCCN1C(=O)[C@H](CC(C)C)NC(=O)[C@H](C)NC(=O)[C@H](CCC(N)=O)NC(=O)[C@H](CCSC)NC(=O)[C@H](CC(C)C)NC(=O)[C@H](CC(C)C)NC(=O)[C@@H]1CCCN1C(=O)[C@@H](NC(=O)[C@H](C)NC(=O)[C@H](CCSC)NC(=O)[C@H](CCCNC(=N)N)NC(=O)[C@H](CCSC)NC(=O)[C@H](CCCCN)NC(=O)[C@H](CO)NC(=O)[C@@H](NC(=O)[C@@H]1CCCN1C(=O)[C@H](CCCCN)NC(=O)[C@@H]1CCCN1C(=O)[C@@H]1CCCN1C(=O)[C@H](CCCCN)NC(=O)[C@@H]1CCCN1C(=O)[C@H](CC(C)C)NC(=O)[C@@H](N)Cc1ccc(O)cc1)C(C)C)[C@@H](C)O)C(=O)O [CLIP]
pIC50 (DR1 (DRA*0101/DRB1*0101); competition with 3 nM 125I labelled (Y)HA306–318, 80 nM DR1 α and β chain, 24 h, spun column, some ligand depletion expected, read-out: IC50): 7.40
pKd ([2]; read-out: DP401 affinity): 8.40
pKd ([3]; read-out: DRB1*0813 affinity): 8.70
pKd ([4]; read-out: DRB3*0301 affinity): 9.00
pKd (DR3 (DRA*0101/DRB1*0301); read-out: DR3 affinity): 9.00
EC50 (DR2 (DR2a); ELISA, L243 detection, α/β 31 and 1 nM, refolding buffer pH 8, 24 h 18°C, peptide concentration in nM per legend, read-out: EC50 DR2): 0.7 nM
pKd ([5]; read-out: DR2a pH6 affinity): 9.00
pIC50 ([6]; competitive LOCI, 4 nM biotin-PEG-HA306–318 agonist, β chain without biotin, α/β 13/5 nM, pH 6-7.5, L243, 48 h 18°C, average of 2–4 measurements, read-out: DR2a Komp IC50): 9.00
EC50 (DR4; ELISA, L243 detection, α/β 31 and 1 nM, refolding buffer pH 8, 24 h 18°C, peptide concentration in nM per legend, read-out: EC50 DR4): 9.7 nM
pKd (DR4 (DRA*0101/DRB1*0401); read-out: DR4 affinity): 8.70

CCCCCCCCCCCC(=O)N(C)CC(=O)O [N-Laurylsarcosin]
Harmfull (to DR1 refolding) (DR1 [7]): Yes
additive concentration at 50 % signal reduction (DR1 [7]; [8]): 0.01 Vol %

CC[C@H](C)[C@H](NC(=O)[C@H](Cc1c[nH]cn1)NC(=O)[C@H](Cc1c[nH]cn1)NC(=O)[C@H](Cc1c[nH]cn1)NC(=O)[C@H](Cc1c[nH]cn1)NC(=O)[C@H](Cc1c[nH]cn1)NC(=O)[C@H](Cc1c[nH]cn1)NC(=O)[C@@H](N)Cc1ccc(O)cc1)C(=O)N[C@@H](CCC(=O)O)C(=O)NCC(=O)N[C@@H](CCCNC(=N)N)C(=O)N[C@@H](CO)C(=O)N[C@@H](Cc1ccccc1)C(=O)N[C@@H](CCC(=O)O)C(=O)N[C@@H](CCCNC(=N)N)C(=O)N[C@@H](Cc1ccccc1)C(=O)N[C@@H](CCC(=O)O)C(=O)N[C@H](C(=O)N[C@@H](Cc1ccccc1)C(=O)N1CCC[C@H]1C(=O)N[C@@H](CCCCN)C(=O)N[C@@H](CCC(=O)O)C(=O)O)[C@@H](C)CC [6xH Influenza A (PR8) HA 109–119]
pKd (I-E^d): 6.01
pKd [2]: 9.00
pKd [3]: 6.74
pKd [4]: 5.82
pKd (DR3 (DRA*0101/DRB1*0301)): 5.84
pKd [5]: 8.05
pIC50 [6]: 7.64
pKd (DR4 (DRA*0101/DRB1*0401)): 5.73

IQMLKNGKKIPKVEMS [Murine β2m]
Kd (I-E^d; I-E^D affinity (nM)): 117 nM
Kd ([2]; DP401 affinity (nM)): > 5000 nM
pKd [3]: 7.14
pKd [4]: 7.15
pKd (DR3 (DRA*0101/DRB1*0301)): 7.68
pKd [5]: 8.22
IC50 ([6]; DR2a Komp IC50 (nM)): 3 nM
Kd (DR4 (DRA*0101/DRB1*0401); DR4 affinity (nM)): > 5000 nM
